Assay results taken from patent US20250213563A1, “SUBSTITUTED PYRIMIDIN-4(3H)-ONES FOR USE IN TREATING CANCER” (NAVIRE PHARMA, INC., priority 2021, published 2025).

Columns and labels:
[1] = Single-dose pharmacokinetics, Cynomolgus monkey; assay type: in vivo, male); conditions: free base; for AUC(0-t): read-out: AUC0→24
Procedure: (§1) The pharmacokinetic (PK) parameters of Compound (10b) (freebase) were determined following single intravenous (IV) and oral (PO) administration in female CD-1 mouse, female C57BL/6 mouse (PO only), male Sprague Dawley rat, male Beagle dog, and male Cynomolgus monkey. Additional evaluation of the PK properties of Compound (10b) was obtained following single dose PO administration in female CD-1 mouse, male Sprague Dawley rat and male Beagle dog over a dose range spanning 10 to 300 mg/kg (mouse and rat) and 1 to 100 mg/kg (dog). The intravenous dose solutions were prepared in 20% DMSO-60% PEG400-20% water and the oral dose solutions as suspensions in 0.5% methylcellulose in water, unless otherwise noted. Plasma concentration profiles were generated from serial sampling in individual animals up to 24 hours post dose, except for the studies in mice where composite sampling methods were used (i.e. 3 sampling times per mouse; 9 mice per group). […] Exposures increased with increasing dose level across species, in a dose-proportional manner in mouse and dog, and in a greater than dose-proportional manner in rat (80× increase in AUC with a 30× increase in dosage).

[2] = Single-dose pharmacokinetics, CD-1 mouse; assay type: in vivo, mouse (CD-1, female); conditions: for AUC(0-t): read-out: AUC0→24
Procedure: as §1

[3] = molecular target: T1, full-length human SHP2 wild-type enzyme (Homo sapiens, UniProt Q06124); test: SHP2 enzymatic assay (DiFMUP), full-length enzyme; assay type: biochemical; conditions: in presence of 1 μM bistyrosylphorphorylated peptide; mean±SD, 34 independent test occasions
T1 construct: full-length human SHP2 (amino acid 1-597); 6xHis (TEV site) (N, cleaved yes); made in house; host or cells: E. coli BL21 (DE3)
Procedure: Protein purification: The recombinant DNA for full-length human SHP2 (amino acid 1-597) or the phosphatase domain of human SHP2 (amino acid Ala237-Ile529) was cloned into a pET30 vector (Sigma #69909-3), which was modified to contain a TEV protease site after the N-terminal 6×His tag. The expression vector was transformed into E. coli BL21 (DE3) (NEB #C2527H). The protein was expressed and purified by the following procedure. Bacterial cells from a 50 mL overnight culture were inoculated in 6 L of terrific broth media. Once the E. coli culture reached an OD600 of 0.7, the temperature was lowered to 18° C. and recombinant protein expression was induced by the addition of 0.5 mM IPTG. After overnight incubation, the cells were harvested by centrifugation at […] for 45 min in a Sorvall Lynx 6000 (Thermo Fisher) centrifuge with F9-6×1000 LEX rotor. The cell pellets were stored at −80° C. until purification. […] The final product was 98% pure as determined by SDS-PAGE. The concentration of SHP2 protein was determined from the absorbance at 280 nm wavelength, using the calculated molar extinction coefficient for SHP2 protein of 72770 M^−1 cm^−1.
SHP2 enzymatic assay: Phosphatase activity of full-length human SHP2 wild-type enzyme or SHP2 phosphatase domain was measured using fluorogenic 6,8-difluoro-4-methylumbelliferyl phosphate (DiFMUP; Molecular Probes #D6567) as the substrate. […]

[4] = male, cynomolgus monkey, plasma, IV 0.3 mg/kg
[5] = male, cynomolgus monkey, plasma, oral 1 mg/kg
[6] = female, CD-1, mouse, plasma, IV 1 mg/kg, free base
[7] = female, CD-1, mouse, plasma, oral 10 mg/kg, free base

T1 sequence (Q06124 1-597 isoform Q06124-1): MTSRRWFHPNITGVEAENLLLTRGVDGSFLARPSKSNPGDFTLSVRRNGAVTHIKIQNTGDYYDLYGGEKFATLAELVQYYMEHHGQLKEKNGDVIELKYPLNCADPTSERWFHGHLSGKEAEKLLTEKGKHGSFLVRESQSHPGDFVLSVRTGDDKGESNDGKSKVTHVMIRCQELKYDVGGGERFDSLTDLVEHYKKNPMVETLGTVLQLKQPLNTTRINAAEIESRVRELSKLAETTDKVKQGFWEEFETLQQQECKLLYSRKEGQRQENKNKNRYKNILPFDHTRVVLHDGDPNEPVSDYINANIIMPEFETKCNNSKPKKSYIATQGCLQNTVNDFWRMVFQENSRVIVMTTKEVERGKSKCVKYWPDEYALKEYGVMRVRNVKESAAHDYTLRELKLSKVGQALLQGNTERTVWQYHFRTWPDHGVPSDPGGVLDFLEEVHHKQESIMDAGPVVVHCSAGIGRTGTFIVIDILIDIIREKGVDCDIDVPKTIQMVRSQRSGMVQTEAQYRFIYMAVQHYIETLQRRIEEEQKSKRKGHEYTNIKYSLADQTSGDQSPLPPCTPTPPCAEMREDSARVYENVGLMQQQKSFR

Cc1c(N2CCC3(CC2)CO[C@@H](C)[C@H]3N)nc(C)n(-c2cccc(Cl)c2Cl)c1=O (atropisomer, axis not shown; (Ra)) [Compound (10b), 6-((3S,4S)-4-amino-3-methyl-2-oxa-8-azaspiro[4.5]decan-8-yl)-3-(Ra)-(2,3-dichlorophenyl)-2,5-dimethylpyrimidin-4(3H)-one]
half-life [1, 4]: 6.44 h | AUC(0-t) [1, 4]: 1.82 µM·h | clearance ([1]; male, cynomolgus monkey, plasma, IV 0.3 mg/kg, read-out: Clp (converted)): 6 mL/min/kg | Vd ([1]; male, cynomolgus monkey, plasma, IV 0.3 mg/kg, read-out: Vdss): 2.74 L/kg | Cmax [1, 5]: 430 nM | Tmax [1, 5]: 2.67 h | AUC(0-t) [1, 5]: 4.52 µM·h | F ([1]; oral 1 mg/kg): 52.3% | half-life [2, 6]: 2.21 h | AUC(0-t) [2, 6]: 1.39 µM·h | clearance ([2]; female, CD-1, mouse, plasma, IV 1 mg/kg, free base, read-out: Clp (converted)): 25.7 mL/min/kg | Vd ([2]; female, CD-1, mouse, plasma, IV 1 mg/kg, free base, read-out: Vdss): 3.84 L/kg | Cmax [2, 7]: 4170 nM | AUC(0-t) [2, 7]: 12.5 µM·h | Tmax ([2]; female, CD-1, mouse, plasma, oral 10 mg/kg, free base, read-out: Tmax (mean)): 0.25 h | Tmax ([2]; female, CD-1, mouse, plasma, oral 300 mg/kg, read-out: mean Tmax): 0.25 h | F ([2]; oral 10 mg/kg, free base): 84.1% | IC50 [3]: 13.2 ± 10.6 nM
